Activity calls are given as the source filed them.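 The calls were made as follows: active = fitted curve reaches 40% activation below the top valid tested dose, in every test run; inconclusive = test runs disagree on the call; inactive = the rest, including effects opposite to the expected direction.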
Assay: endothelial E-selectin upregulation by compounds – imaging, HUVEC, cherry-picked samples, dose response (AID 977605);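 also: signal is the share of imaged cells scored positive for E-selectin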
Conditions: HUVEC E-selectin immunostaining
[1] = at 19.5 µM (top of the series), percent of TNF-alpha response over vehicle
[2] = at 21 µM (top of the series), percent of TNF-alpha response over vehicle

In the case of COc1ccccc1CNC(=O)[C@@H]1CCCN1S(=O)(=O)c1ccc(Cl)cc1, the activation [1] was -0.15% (inactive).

For CCOC(=O)C1(Cc2ccccc2C)CCCN(C(=O)c2ccnn2C)C1 (centres undefined), the activation [1] was -0.138% (inactive).

With C[C@@H]1CN([C@H](C)CO)C(=O)c2cc(NC(=O)Nc3ccc(F)cc3)ccc2O[C@H]1CN(C)S(=O)(=O)c1cccs1 the activation [1] was 0.059% (inactive).

With Cc1ccc(NCc2n[nH]c(=S)n2-c2ccccc2)cc1 the activation [1] was 1.12% (inactive).

In the case of O=C(NCc1ccccc1)C(c1ccc(C(F)(F)F)cc1)N1CCN(CCN2CCOCC2)CC1 (centres undefined), the activation [1] was 6.03% (inactive).

In the case of Cc1ccc(O)c([C@H](CCN(C(C)C)C(C)C)c2ccccc2)c1, the activation [1] was -0.269% (inactive).

With Cc1ccsc1CN(C)Cc1nc(C2CC2)no1 the activation [1] was 1.75% (inactive).

With Cc1ccc(S(=O)(=O)NNC(=O)c2cccc(O)c2)cc1 the activation [1] was -0.007% (inactive).

In the case of COc1ccc(NC(=O)Nc2cccc3c2O[C@H](CN(C)Cc2ccc(C(=O)Nc4ccccc4N)cc2)[C@H](C)CN([C@H](C)CO)C3=O)cc1, the activation [1] was 1.32% (inactive).

With CC(C)NC(=O)N(C)C[C@H]1Oc2ccc(NC(=O)CCC(F)(F)F)cc2CC(=O)N([C@@H](C)CO)C[C@H]1C the activation [2] was 5.5% (inactive).

With C=CCN(C(=O)c1csnn1)C(C(=O)NC1CCCCC1)c1ccccc1 (centres undefined) the activation [1] was -0.215% (inactive).

With CCNC(=O)CC1C(=O)N(c2ccc(OC)cc2)C(=O)N1CCOC (centres undefined) the activation [1] was -0.131% (inactive).

For CCOC(=O)c1cccc(NC(=O)Nc2ccc3c(c2)C(=O)OC3)c1, the activation [1] was 0.013% (inactive).

In the case of CC(C)NC(=O)Nc1ccc2c(c1)CC(=O)N([C@H](C)CO)C[C@H](C)[C@@H](CN(C)Cc1ccc(C(=O)O)cc1)O2, the activation [2] was -0.068% (inactive).

In the case of Cc1ccccc1N(CC(=O)NC1CCCCC1)C(=O)CNC(=O)c1cccs1, the activation [1] was 0.744% (inactive).

For C[C@H]1CN([C@@H](C)CO)C(=O)c2cc(NC(=O)Nc3ccccc3)ccc2O[C@@H]1CN(C)C(=O)Nc1ccc(C(F)(F)F)cc1, the activation [2] was 0.08% (inactive).

With COc1ccc(S(=O)(=O)Nc2cccc3c2O[C@H](CN(C)C(=O)Nc2c(C)noc2C)[C@@H](C)CN([C@H](C)CO)C3=O)cc1 the activation [2] was -0.117% (inactive).

In the case of CC(C)NC(=O)Nc1ccc2c(c1)C(=O)N([C@@H](C)CO)C[C@H](C)[C@H](CN(C)Cc1ccc(C(F)(F)F)cc1)O2, the activation [1] was 0.054% (inactive).

In the case of COc1ccc(S(=O)(=O)Nc2ccc3c(c2)CC(=O)N([C@@H](C)CO)C[C@H](C)[C@@H](CN(C)C(=O)NC2CCCCC2)O3)cc1, the activation [2] was 0.142% (inactive).

In the case of C/C=C/c1ccc2c(c1)O[C@H](CN(C)C(=O)CC)[C@@H](C)CN([C@H](C)CO)S2(=O)=O, the activation [1] was 25.5% (inactive).

With CC(C)CC#Cc1ccc2c(c1)O[C@H](CN(C)Cc1ccncc1)[C@H](C)CN([C@@H](C)CO)S2(=O)=O the activation [1] was -0.038% (inactive).

In the case of NC(C(=O)O)c1cc(=O)[nH]o1 (centres undefined), the activation (at 19.5 µM (top of the series)) was 0.044% (inactive).

For C[C@@H]1CN([C@@H](C)CO)C(=O)c2cc(C#CC3CC3)cnc2O[C@@H]1CN(C)C(=O)c1ccccc1, the activation [1] was -0.295% (inactive).

In the case of C[C@@H]1CN([C@@H](C)CO)C(=O)Cc2cc(NC(=O)Cc3ccccc3)ccc2O[C@H]1CN(C)C(=O)Nc1cccc2ccccc12, the activation [1] was -0.158% (inactive).

In the case of C[C@@H]1CN([C@H](C)CO)C(=O)Cc2cc(NS(=O)(=O)c3ccc(F)cc3)ccc2O[C@H]1CN(C)S(=O)(=O)c1ccc(Cl)cc1, the activation [1] was 5.23% (inactive).

In the case of COc1ccc(-c2nnc3n2CCCCC3)cc1, the activation [1] was 0.032% (inactive).

With O=C(NCc1ccc(F)cc1)c1cc(C2CCCCN2C(=O)CCCc2ccccc2)on1 (centres undefined) the activation [1] was -0.164% (inactive).

With COc1ccccc1N(C(=O)c1snc(C(N)=O)c1N)C(C(=O)NCc1ccccc1)c1ccc(C)o1 (centres undefined) the activation [1] was -0.235% (inactive).

With COc1ccc(S(=O)(=O)N(C)C[C@H]2Oc3ccc(NC(=O)Nc4ccc5c(c4)OCO5)cc3CC(=O)N([C@@H](C)CO)C[C@H]2C)cc1 the activation [2] was 0.529% (inactive).

For COc1ccc(-c2nc3cc(C)c(Br)c(C)n3c2CC(C)(C)C)cc1OC, the activation [1] was 0.052% (inactive).

For C[C@@H]1CN([C@@H](C)CO)C(=O)c2cccc(NC(=O)c3ccc(-c4nccs4)cc3)c2O[C@@H]1CN(C)Cc1ccc(Cl)c(Cl)c1, the activation [1] was 0.039% (inactive).

In the case of CCn1c(CCC(=O)O)nc2cc(S(=O)(=O)N3CCOCC3)ccc21, the activation [1] was -0.184% (inactive).

For COc1ccc(S(=O)(=O)N(C)C[C@H]2Oc3ccc(NC(=O)Nc4c(C)noc4C)cc3C(=O)N([C@@H](C)CO)C[C@@H]2C)cc1, the activation [2] was 2.96% (inactive).

In the case of C[C@@H]1CN([C@@H](C)CO)C(=O)c2cccc(NC(=O)c3ccc(-c4nccs4)cc3)c2O[C@H]1CN(C)Cc1ccc(Oc2ccccc2)cc1, the activation [1] was 3.4% (inactive).

— PubChem BioAssay AID977605 (Broad Institute, 2014)
